Test results from patent US10815233B2, “Dihydroindolizinone derivative” (ONO PHARMACEUTICAL CO., LTD., priority 2014, dated 2020).

Assays:
standard human plasma = test: Activated partial thromboplastin time (APTT) in standard human plasma; assay type: biochemical; settings: concentration required for doubling the coagulation time vs vehicle (1% DMSO)
Procedure: Activated partial thromboplastin time (APTT) and prothrombin time (PT) were measured by using a fully automatic device for measuring blood coagulation (CA-1500, Sysmex Corporation). On APTT or PT measurement, standard human plasma for the blood coagulation tests (Siemens Healthcare Diagnostics GmbH) was mixed with a diluted solution of the compound of the present invention, and thereafter, APTT reagent (Siemens Healthcare Diagnostics GmbH) and 0.02 M of calcium chloride or PT reagent (Siemens Healthcare Diagnostics GmbH) were automatically added to the mixture in order to initiate clot formation. The anticoagulation activity (APTT×2 or PT×2) of the compound of the present invention was expressed as a concentration required for doubling the coagulation time in the vehicle (1% DMSO) group. APTT×2 or PT×2 was determined by plotting the concentration of the compound of the present invention against a twofold increase in the coagulation time.

[1] = Pharmacokinetic (PK) tests in rats; assay type: in vivo
Procedure: The compound of the present invention was administered to fasted male Crj:CD(SD) rats by intravenous injection as a single intravenous dose of 0.1 mg/kg (vehicle: 20% HP-β-CD solution) and by forced oral dosage as a dose of 1 mg/kg per os (vehicle: 0.5% methylcellulose solution). Blood samples were collected from cervical vein into heparinized syringes at 0.08, 0.25, 0.5, 1, 3 or 7 hours after administration by intravenous injection or 0.08, 0.25, 0.5, 1, 2, 4, 6, 8 or 24 hours after oral administration. Plasma was obtained by centrifugation, and plasma was stored at −20° C. until measurement of plasma concentration.
In order to measure the plasma concentration of the compound of the present invention, the plasma sample was subjected to deproteinization by using acetonitrile, was filtrated by using a filter, and thereafter, was diluted with purified water, and then was analyzed by LC/MS/MS. A column for analysis (Shim-pack XR-ODSII, 2.0 mm×75 mm, 2.2 μm) and mobile phases (0.1% formic acid in water and 0.1% formic acid in acetonitrile, flow rate: 0.5 mL/min) were used. The system was used by detection of cations in the Multiple Reaction Monitoring (MRM) mode.
The area under the blood concentration versus time curve (AUC) and the bioavailability (BA) of the compound of the present invention were calculated. In addition, as indices of the maintaining time of the anticoagulation activity in the case of oral administration, AUC/APTT×2, which is obtained by dividing AUC by APTT×2, and C8h/APTT×2, which is obtained by dividing C8h (the plasma concentration at 8 hours after administration) by APTT×2, were calculated.
In addition, the period of time when the compound concentration in plasma of the compound of the present invention exceeded APTT×2 (the APTT×2 maintaining time) was calculated from the change in the compound concentration in plasma in the case when the compound of the present invention was orally administered at a dose of 1 mg/kg. The longer the APTT×2 maintaining time is, the longer the period of time is when the anticoagulation activity is maintained after oral administration.

[2] = biological target: T1, human blood coagulation factor XIa (Homo sapiens, UniProt P03951); test: Inhibitory activity on human blood coagulation factor XIa (chromogenic substrate S-2366); assay type: biochemical; settings: chromogenic substrate S-2366, 37° C.; read-out: FXIa inhibitory activity IC50
T1 construct: human blood coagulation factor XIa (Haematologic Technologies Inc.); purchased Haematologic Technologies Inc
T1 sequence (P03951 388-625 limits assumed): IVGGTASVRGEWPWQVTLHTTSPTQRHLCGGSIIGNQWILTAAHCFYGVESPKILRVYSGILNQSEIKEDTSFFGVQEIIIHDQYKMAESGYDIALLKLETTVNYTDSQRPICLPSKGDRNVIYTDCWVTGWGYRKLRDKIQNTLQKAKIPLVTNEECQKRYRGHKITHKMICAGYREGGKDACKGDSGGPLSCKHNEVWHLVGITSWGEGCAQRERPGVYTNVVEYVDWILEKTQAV
T1 sequence (P03951 19-387 partner limits assumed): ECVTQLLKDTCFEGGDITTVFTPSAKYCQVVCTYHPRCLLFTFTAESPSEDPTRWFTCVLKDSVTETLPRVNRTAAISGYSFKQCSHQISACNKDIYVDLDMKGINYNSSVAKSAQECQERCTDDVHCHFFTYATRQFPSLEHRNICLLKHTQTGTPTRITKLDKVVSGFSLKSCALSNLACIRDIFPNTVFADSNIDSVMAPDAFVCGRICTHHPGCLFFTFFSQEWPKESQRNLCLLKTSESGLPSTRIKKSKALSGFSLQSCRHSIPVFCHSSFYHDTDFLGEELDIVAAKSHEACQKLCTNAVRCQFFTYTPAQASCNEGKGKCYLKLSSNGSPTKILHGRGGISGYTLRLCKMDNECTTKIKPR
Procedure: Inhibitory activities of the compound of the present invention on human blood coagulation factor XIa, factor VIIa, factor IXa, factor Xa, factor XIIa, plasma kallikrein and thrombin were evaluated. A chromogenic substrate solution was added to each of enzyme solutions, the absorbance at 405 nm was measured continuously at 37° C. for 5 minutes at intervals of 15 seconds, and the decomposition rate of each of substrates (mOD/min) was calculated. The half maximal (50%) inhibitory concentration (IC50) of the compound of the present invention on each of the enzymes was calculated by linear regression by using least-squares method from the concentration of the compound of the present invention which was converted in terms of natural logarithm and the rate of enzyme inhibition calculated according to the following equation.
The rate of enzyme inhibition (%) of the compound of the present invention was calculated by using the following equation: Rate of enzyme inhibition (%)=100×{(Cont(e)−BL(e))−(Comp(e)−BL(e))/(Cont(e)−BL(e))}
Cont (e): Decomposition rate of substrate (mOD/min) when enzyme solution and substrate solution were added to physiological saline containing 5% dimethyl sulfoxide
Comp (e): Decomposition rate of substrate (mOD/min) when enzyme solution and substrate solution were added to physiological saline containing 5% dimethyl sulfoxide and the compound of the present invention
The inhibitory activity on human blood coagulation factor XIa (Haematologic Technologies Inc.) was measured by using the enzyme solution adjusted to 0.1 U/mL by a buffer solution containing 300 mM of NaCl, 10 mM of KCl, 2 mg/mL of PEG 6000 and 100 mM of HEPES-NaOH (pH 7.4) as well as S-2366 (pyroglu-Pro-Arg-pNA, CHROMOGENIX) adjusted to 1 mM by distilled water.

N#Cc1cn(-c2ccc(Cl)cc2-c2cc3n(c(=O)c2)[C@H](c2nc(F)c(-c4ccc(N)cc4)[nH]2)CC3)nn1 [Example 4 (10), 1-(2-{(3S)-3-[5-(4-aminophenyl)-4-fluoro-1H-imidazol-2-yl]-5-oxo-1,2,3,5-tetrahydro-7-indolizinyl}-4-chlorophenyl)-1H-1,2,3-triazole-4-carbonitrile]
APTT × (standard human plasma): 1.8 µM
concentration at 8 h ([1]; male, Crj:CD(SD), rat, plasma, oral, rats, 1 mg/kg per os, 8 hours after administration, read-out: Plasma concentration C8h): 2500 nM
AUC ([1]; rat, plasma, po, fasted male Crj:CD(SD) rats, 1 mg/kg per os): 45 µM·h
APTT × 2 maintaining time ([1]; rats, 1 mg/kg orally, period when plasma concentration exceeded APTT×2): >8 h
C8h/APTT × 2 ([1]; rats, 1 mg/kg per os, C8h divided by APTT×2): 1.4
IC50 [2]: 5.4 nM
